From patent publication US4927851A, “Analogs of mevalonolactone and derivatives thereof” (Sandoz Pharm. Corp., priority 1988, dated 1990)
Where a name gives a salt, the structure may show the parent alone.

Legend:
[1] = system: 3β-hydroxysterol synthesis; assay: Test B. In Vivo Cholesterol Biosynthesis Inhibition Test; details: Rattus norvegicus, po; rats, orally administered, 0.01-200 mg/kg body weight; read-out: ED50, dose producing a 50% inhibition of 3β-hydroxysterol synthesis
Procedure: Test B. In Vivo Cholesterol Biosynthesis Inhibition Test:
In this test the rats are orally administered the test substance (compound of Formula I) at dose of 0.01-200 mg/kg. body weight. The obtained ED50 is the dose of the test substance observed or calculated to produce a 50% inhibition of 3β-hydroxysterol synthesis.

HMG-CoA reductase = target: T1, HMG-CoA reductase (Rattus norvegicus, UniProt P51639); assay: Test A. In Vitro Microsomal Assay of HMG-CoA Reductase Inhibition; assay type: biochemical; details: test substance 0.0005-2,000 μmolar, read-out: IC50, concentration producing a 50% inhibition of HMG-CoA reductase activity
T1 construct: from tissue; host or cells: microsomes (printed); rat liver, Sprague-Dawley, by own knowledge of the cited method
T1 sequence (P51639 1-887): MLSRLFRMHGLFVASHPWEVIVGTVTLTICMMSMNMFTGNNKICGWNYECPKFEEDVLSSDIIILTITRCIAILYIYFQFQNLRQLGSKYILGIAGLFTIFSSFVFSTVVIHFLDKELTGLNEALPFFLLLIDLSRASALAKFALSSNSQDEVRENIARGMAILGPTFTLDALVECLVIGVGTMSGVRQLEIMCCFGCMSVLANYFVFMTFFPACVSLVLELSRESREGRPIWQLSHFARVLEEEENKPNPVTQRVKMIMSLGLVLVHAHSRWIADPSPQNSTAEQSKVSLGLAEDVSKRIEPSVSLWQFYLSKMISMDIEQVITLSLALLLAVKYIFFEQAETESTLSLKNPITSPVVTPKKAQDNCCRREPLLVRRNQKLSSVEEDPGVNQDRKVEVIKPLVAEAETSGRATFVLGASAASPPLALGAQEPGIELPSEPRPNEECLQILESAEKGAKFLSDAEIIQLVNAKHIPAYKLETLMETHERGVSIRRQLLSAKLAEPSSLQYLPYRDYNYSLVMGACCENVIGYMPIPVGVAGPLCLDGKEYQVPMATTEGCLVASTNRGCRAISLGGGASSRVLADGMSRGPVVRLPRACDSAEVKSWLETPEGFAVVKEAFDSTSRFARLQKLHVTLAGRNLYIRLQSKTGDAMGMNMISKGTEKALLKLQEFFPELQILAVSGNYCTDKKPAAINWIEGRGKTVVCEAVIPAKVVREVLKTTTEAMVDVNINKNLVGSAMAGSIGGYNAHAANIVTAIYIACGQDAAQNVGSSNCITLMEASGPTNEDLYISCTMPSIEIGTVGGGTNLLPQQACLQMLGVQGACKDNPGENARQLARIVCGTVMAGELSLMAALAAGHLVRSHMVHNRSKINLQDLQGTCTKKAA
Procedure: Test A. In Vitro Microsomal Assay of HMG-CoA Reductase Inhibition:
This test is carried out precisely as described in column 53 of U.S. Pat. No. 4,613,610 and on page 30 of World (PCT) Published Patent Application No. 84/02131, both of which are hereby incorporated by reference as if set forth herein in their entirety. The concentration of the test substance (compound of Formula I) in the assay system is 0.0005-2,000 μmolar. The obtained IC50 is the concentration of the test substance in the assay system observed or calculated to produce a 50% inhibition of HMG-CoA reductase activity.

Row | IC50 (HMG-CoA reductase) | SMILES | ED50 [1]
1 |  | CC[C@H](C)C(=O)O[C@H]1CCC=C2C=C[C@H](C)[C@H](CC[C@@H]3C[C@@H](O)CC(=O)O3)[C@H]21 [Compactin, reference compound] | 3.5 mg/kg
2 | 190 nM | CC(C)c1oc(-c2ccccc2)c(-c2ccc(F)cc2)c1/C=C/C(O)CC(O)CC(=O)O (centres unmarked) [Example 5b] | 0.35 mg/kg
3 | 28 nM | CC(C)c1sc(-c2ccccc2)c(-c2ccccc2)c1/C=C/C(O)CC(O)CC(=O)O (centres unmarked) [Example 5c, sodium(E)-7-(4-phenyl-2-isopropyl-5-phenylthien-3-yl)-3,5-dihydroxy-hept-6-enoate] | 0.169 mg/kg
4 | 27 nM | CC(C)c1sc(C(C)C)c(-c2ccc(F)cc2)c1/C=C/C(O)CC(O)CC(=O)O (centres unmarked) [Example 8 (sodium salt)] | 0.076 mg/kg
5 |  | CC[C@H](C)C(=O)O[C@H]1C[C@@H](C)C=C2C=C[C@H](C)[C@H](CC[C@@H]3C[C@@H](O)CC(=O)O3)[C@H]21 [Mevinolin, reference compound] | 0.41 mg/kg
